Assay results: patent publication US12414931B1 (priority 2024, dated 2025)

Key:
[1] = molecular target: T1, purified recombinant KGA (Homo sapiens, UniProt O94925); test: KGA activity inhibition assay, spectrophotometric (NADH production at 340 nm); format: biochemical; conditions: 37° C., 30 min, 5 mM glutamine
T1 construct: His6 (C); made in house; host or cells: E. coli Rosetta (DE3), pET28a(+)
T1 sequence (O94925 72-598): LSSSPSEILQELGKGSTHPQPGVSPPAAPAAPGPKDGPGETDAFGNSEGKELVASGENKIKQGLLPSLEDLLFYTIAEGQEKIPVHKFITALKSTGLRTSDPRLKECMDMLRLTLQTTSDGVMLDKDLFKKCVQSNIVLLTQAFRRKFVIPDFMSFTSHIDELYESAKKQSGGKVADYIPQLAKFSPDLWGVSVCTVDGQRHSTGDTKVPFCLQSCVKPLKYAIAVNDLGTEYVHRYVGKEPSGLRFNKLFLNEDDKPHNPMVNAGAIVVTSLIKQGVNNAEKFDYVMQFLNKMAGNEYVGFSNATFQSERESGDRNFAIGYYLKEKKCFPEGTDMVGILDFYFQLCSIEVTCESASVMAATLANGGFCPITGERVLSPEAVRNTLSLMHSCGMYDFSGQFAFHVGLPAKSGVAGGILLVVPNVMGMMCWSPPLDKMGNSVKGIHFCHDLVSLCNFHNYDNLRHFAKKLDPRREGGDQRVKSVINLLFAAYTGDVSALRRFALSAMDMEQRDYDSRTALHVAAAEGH

[2] = system: MCF12A cells; format: cell-based, human; conditions: read-out: IC50 cell viability, normal breast cells
[3] = system: HCC1569 cells
[4] = system: MDA-MB-231 cells
[5] = molecular target: purified KGA (Homo sapiens, UniProt O94925); conditions: read-out: apparent binding affinity (Kd)
[6] = system: MDA-MB-231 cells; remark: listed apart in the source
[7] = molecular target: T2, KGA (Homo sapiens, UniProt O94925); format: biochemical
T2 construct: His6 (C); made in house; host or cells: E. coli Rosetta (DE3), pET28a(+)
T2 sequence (O94925 72-598): T1 sequence (O94925 72-598)

## NC(CCP(=O)(O)O)C(=O)O (stereo not shown) [AP4, 2-amino-4-phosphonobutyric acid]
[1]
  half-maximal inhibitory concentration (IC50) against KGA: submillimolar range

## N[C@H](CC[As](=O)(O)O)C(=O)O [AST-OH, hydroxyarsinothricin]
[1]
  half-maximal inhibitory concentration (IC50) against KGA: submillimolar range

## [N-]=[N+]=CC(=O)CC[C@H](N)C(=O)O [DON, 6-diazo-5-oxo-L-norleucine]
[1]
  half-maximal inhibitory concentration (IC50) against KGA: submillimolar range

## NC(CC[As](O)O)C(=O)O (stereo not shown) [R-AST-OH, trivalent hydroxyarsinothricin]
[2]
  IC50: 75 µM
[3]; 10 µM
  cells that lost viability: ~47%
[3]; read-out: IC50 cell viability
  IC50: 3 µM
[4]; 10 µM
  cells that lost viability: approximately 64%
[4]; read-out: IC50 cell viability
  IC50: 5 µM
[5]
  Kd: 40 µM
[6]
  cell permeability (uptake of arsenicals): lowest permeability
[7]; luminescent assay, 15 min preincubation with KGA, read-out: IC50 against KGA
  IC50: 2 µM
[7]; ratio of IC50 values
  fold more effective inhibitor of KGA than Rox(III): 4.5 fold
  fold more effective inhibitor of KGA than pentavalent AST-OH: 125 fold
